According to publication PMC8294803, “A Roadmap to the Structure-Related Metabolism Pathways of Per- and Polyfluoroalkyl Substances in the Early Life Stages of Zebrafish (Danio rerio)” (Environmental Health Perspectives, 2021):
“And” between values parts separate entries of the source, which are not always exact repeats. Equal entries are not always repeated.

Experiments:
zebrafish larvae [1] = test: Identification of taurine conjugates by the DIPIC-Frag method in zebrafish larvae; type: in vivo, Danio rerio; conditions: among 74 PFAS
From the text: To identify the taurine conjugates in zebrafish larvae exposed to PFAS, we used the data-independent precursor isolation and characteristic fragment (DIPIC-Frag) method developed in previous studies ([Peng et al. 2015], [2016]) to enhance the coverage inspired by the detection of the characteristic fragment from taurine conjugates ( [taurine-H]^− , m/z 124.0063). Then, the taurine fragment peak was extracted from each AIF window across all 243 raw MS data. Once the taurine fragment peak was detected, corresponding precursor ions were identified from the same window and sample by aligning their chromatographic peaks. The precursor ions were further confirmed by their co-occurrences with the taurine fragment across samples. Once precursor ions were identified, the compound formulas and structures were predicted by interpreting high-resolution MS and MS/MS spectra, as mentioned above.

zebrafish embryos [2] = conditions: for pericardial oedemata, Mean / spinal curvature, Mean / tail dysplasia, Mean: 5μM through 120 hpf, malformation rate; for Mortality (%): 5 µM, exposure through 120 hpf
zebrafish embryos [3] = test: Time courses of carboxamides and PFCA metabolites in zebrafish embryos/larvae; type: in vivo, Danio rerio; conditions: zebrafish exposed to 5 μM of 19, 31 and 38 separately, N=20, three replicates
Method: Time courses of carboxamides (19, 31, and 38) and corresponding perfluoroalkyl carboxylic acid (PFCA) metabolites in zebrafish larvae were investigated. The procedure of zebrafish embryo collection was described above. Twenty embryos were randomly assigned into each well of a 24-well plate. Subsequently, 15 wells were dosed with 3mL of each chemical ( 5μM ). […] The exposure medium was prepared fresh and changed each day, and dead larvae were discarded. For each chemical, 3 wells were harvested every 24 h, and the surviving larvae were transferred to three different tubes for further PFAS extraction ( N=12–18 ).

soil microcosms = system: soil microcosms; parameters: method as in Mejia-Avendaño et al. 2016; conditions: ref Mejia-Avendaño et al. 2016; cited from earlier work
zebrafish larvae [4] = test: Nontargeted analysis of PFAS metabolites in zebrafish larvae (high-resolution MS)
Method: Zebrafish embryos were collected immediately after spawning, within 1 h, and subsequently transferred to 24-well plates with 1mL of facility water ( 0.036g sea salt, 0.15g sodium bicarbonate in 2L of reverse osmosis water). […] Three well replicates on the same plate were conducted for each concentration of individual chemical. […] Seven batches of experiments were performed to test all 74 PFAS. DMSO controls were incorporated in each batch of exposure experiments. Three replicates were performed for each treatment group, and 20 embryos were used for each replicate. […] For daily replenishment, 2.5mL of old exposure medium were replaced with freshly prepared medium every 24 h from 24 to 96 h post fertilization (hpf). Hatched or dead embryo numbers were recorded every 24 hpf, after which dead embryos were discarded from the growth media. Dead embryos or unhatched embryos were not used for PFAS measurement because the metabolism of PFAS might have been impacted. Zebrafish larvae collection occurred at 120 hpf. First, the larvae were anesthetized by cooling the plate in ice water (0–4°C) for ∼20 min . Then 8–15 larvae in each well were transferred into 1.5-mL tubes. Exposure media was carefully removed, and then the larvae were weighed (wet weight) after blotting excess water with a paper towel. […] Samples were stored at −80 °C until further chemical analysis was performed. Survival rate and hatching rate were calculated by summarizing all the documented data from the whole treatment duration. […] The exposure experiment of PFOSA was repeated using the same procedure as described above.
Each sample was spiked with 2μL of 0.2μg/mL mass-labeled PFAS mixture. Following this, 500μL of dichloromethane/methanol (2:1, vol/vol) was added to each sample for PFAS extraction. Larvae were then homogenized via ultrasonic probe, followed by 30 min of shaking and 30 min of sonication. Each sample was centrifuged at 14,000×g for 5 min, after which the supernatant was transferred to new tubes. Extraction was repeated once and the two supernatants were combined, evaporated under nitrogen flow, and reconstituted in 200μL of methanol for MS analysis.
Three microliters of each zebrafish extract was applied to a C18 column ( 1.5μm; 2.1mm×50mm; Thermo Scientific) and analyzed using a Vanquish ultra-HPLC system (Thermo Fisher Scientific) coupled to a Q Exactive high-resolution mass spectrometer (Thermo Fisher Scientific). The sampler and column compartments were maintained at 4°C and 40°C, respectively. The aqueous mobile phase solution (A) consisted of water, whereas the organic mobile phase solution (B) consisted of acetonitrile. […] MS data was acquired in full scan mode (100–1000 m/z, 70,000 mass resolution, 3×10^6 maximum ions collected per 100 ms), and tandem MS (MS/MS) data was recorded by all-ion fragmentation (AIF) mode. Negative and positive ion modes were carried out simultaneously at a 10-min method duration. […] An overview of the analyses conducted on the various PFAS is available in Table S2.
Nontargeted data analysis was accomplished with R scripts that are available on Github (https://github.com/huiUofT/PFASmetabolite). […] The peak features were matched across samples with a mass tolerance of 2.5 ppm and a RT window of 20 s, after RT adjustment. The ratio of abundances of each feature in treatment groups relative to the control group (DMSO) was calculated. The p -values of the difference between two groups were determined by student’s t -tests.

[5] = system: liver fatty acid binding protein (L-FABP); parameters: method as in Yang et al. 2020; conditions: ref Yang et al. 2020, cited from earlier work; for Kd: read-out: Kd (μM), L-FABP binding affinity
zebrafish larvae [6] = test: Bioconcentration factors (BCF) of PFAS in zebrafish larvae; conditions: zebrafish larvae; for BCF 0.5µM: 0.5 µM exposure; for BCF 0.5µM / BCF 5µM: 120 hpf, three replicates; for BCF 5µM: 5 µM exposure
Outline: (§1)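 Zebrafish embryos collected within 1 h post-spawning were exposed individually to each PFAS in facility water with DMSO controls, medium renewed every 24 h from 24 to 96 hpf. Live hatched larvae collected at 120 hpf, wet-weighed, extracted with dichloromethane/methanol and analysed by UHPLC–high-resolution MS against mass-labelled standards.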

[7] = as above; conditions: zebrafish (Danio rerio), whole larvae, other: immersion in exposure medium, 5 µM
Outline: as §1

Compound | Taurine conjugates detected (zebrafish larvae [1]) | pericardial oedemata, Mean (zebrafish embryos [2]) [%] | spinal curvature, Mean (zebrafish embryos [2]) [%] | tail dysplasia, Mean (zebrafish embryos [2]) [%] | Mortality (%) (zebrafish embryos [2]) | BCF 0.5µM (zebrafish larvae [6]) [L/kg] | BCF 5µM (zebrafish larvae [6]) [L/kg] | further results
3-(Perfluoro-2-butyl)propane-1,2-diol [compound 30] | taurine conjugates were detected | 2.22 | 2.22 | 0.00 | 0 | – | – | –
O=C(O)C(F)(F)C(F)(F)C(F)(F)C(F)F [1H-PFPeA] | – | – | – | – | – | – | – | Peak intensity in zebrafish (zebrafish embryos [3]; 24 hpf): 41617598 and 43836041 and 44656574; Peak intensity in zebrafish (zebrafish embryos [3]; 48 hpf): 60989972 and 64452114 and 58767796; Peak intensity in zebrafish (zebrafish embryos [3]; 72 hpf): 101000000 and 97804534 and 98584848; Peak intensity in zebrafish (zebrafish embryos [3]; 96 hpf): 168000000 and 176000000 and 174000000; Peak intensity in zebrafish (zebrafish embryos [3]; 120 hpf): 221000000 and 206000000 and 215000000
O=C(O)C(F)(F)C(F)(F)C(F)(F)F [PFBA (12)] | – | – | – | – | – | – | – | Peak intensity in zebrafish (zebrafish embryos [3]; 24 hpf): 10634213 and 16343253 and 15866316; Peak intensity in zebrafish (zebrafish embryos [3]; 48 hpf): 25172596 and 26956389 and 28007592; Peak intensity in zebrafish (zebrafish embryos [3]; 72 hpf): 26852594 and 32851030 and 26877542; Peak intensity in zebrafish (zebrafish embryos [3]; 96 hpf): 47637483 and 46740315 and 40653414; Peak intensity in zebrafish (zebrafish embryos [3]; 120 hpf): 68162507 and 69974600 and 72855428
O=C(O)C(F)(F)C(F)(F)C(F)(F)C(F)(F)F [PFPeA, perfluoropentanoic acid] | – | – | – | – | – | – | – | Peak intensity in zebrafish (zebrafish embryos [3]; 24 hpf): 42022849 and 47643542 and 46800668; Peak intensity in zebrafish (zebrafish embryos [3]; 48 hpf): 46439212 and 83368187 and 82483907; Peak intensity in zebrafish (zebrafish embryos [3]; 72 hpf): 149000000 and 148000000 and 143000000; Peak intensity in zebrafish (zebrafish embryos [3]; 96 hpf): 242000000 and 252000000 and 243000000; Peak intensity in zebrafish (zebrafish embryos [3]; 120 hpf): 224000000 and 215000000 and 223000000
C[N+](C)(C)CCCNS(=O)(=O)C(F)(F)C(F)(F)C(F)(F)C(F)(F)C(F)(F)C(F)(F)C(F)(F)C(F)(F)F [compound 5, Perfluorooctanesulfonamido ammonium iodide] | – | 0.00 | 1.11 | 0.00 | 2.2 | 48.14 | 56 ± 16 | Half-life, biodegradation by soil microcosms (soil microcosms): 142 days; Metabolite peak features detected (zebrafish larvae [4]; zebrafish larvae exposed to 5μM): 74; L-FABP ligand [5]: not identified as L-FABP ligands; BCF at 0.5μM compared with 5μM (zebrafish larvae [6]): comparable or even higher BCFs at 5μM
O=C(O)C(F)(F)C(F)(F)C(F)(F)F [compound 12, Perfluorobutanoic acid] | – | 1.11 | 0.00 | 0.00 | 4.4 | 2.559 | 1.0 ± 0.28 | Peak intensity of PFCA in zebrafish embryos directly exposed to the PFCA (zebrafish larvae [4]; 5μM through 120 hpf, single replicates, listed as PFBA): 3728507 and 3082077 and 5690847; concentration at 120 hpf [7]: 3.1 ± 0.88 µM
O=C(O)CCC(F)(F)C(F)(F)C(F)(F)C(F)(F)C(F)(F)F [compound 14, 2H,2H,3H,3H-Perfluorooctanoic acid] | taurine conjugates were detected | 0.00 | 0.00 | 1.11 | 1.1 | 6.7299 | 8.7 ± 2.1 | Kd [5]: 158 µM; BCF at 0.5μM compared with 5μM (zebrafish larvae [6]): comparable or even higher BCFs at 5μM
COC(=O)CCC(F)(F)C(F)(F)C(F)(F)C(F)(F)F [compound 39, Methyl 2H,2H,3H,3H-perfluoroheptanoate] | taurine conjugates were detected | 0.00 | 0.00 | 0.00 | 1.1 | – | – | –
OCCCCC(F)(F)C(F)(F)C(F)(F)C(F)(F)F [compound 40, 4:4 Fluorotelomer alcohol] | taurine conjugates were detected | 0.00 | 0.00 | 0.00 | 0 | – | – | Profile of metabolites (%): Alcohol (zebrafish larvae [4]; zebrafish larvae, Figure 5B): 0.00%; Peak intensity: Alcohol (parent FTOH) (zebrafish larvae [4]; zebrafish larvae, single replicates, Figure 5A): 0
OCCCC(F)(F)C(F)(F)C(F)(F)F [compound 49, 3-(Perfluoropropyl)propanol] | taurine conjugates were detected | 0.00 | 0.00 | 0.00 | 1.1 | – | – | –
O=C(O)C=CC(F)(C(F)(F)F)C(F)(F)F [compound 56, 3-(Perfluoroisopropyl)-2-propenoic acid] | taurine conjugates were detected | 0.00 | 0.00 | 0.00 | 4.4 | 2.65 | 1.6 ± 0.21 | –
O=C(O)C(F)(F)C(F)(F)C(F)(F)C(F)(F)C(F)(F)C(F)(F)C(F)(F)F [compound 74, Perfluorooctanoic acid] | – | 0.00 | 0.00 | 0.00 | 4.4 | 31.5419 | 17 ± 3.2 | Kd [5]: 18.7 µM; concentration at 120 hpf [7]: 76 ± 1.6 µM
